Values of other authors, collected in patent publication US10098891B2, “Highly concentrated stable meloxicam solutions for needleless injection” (BOEHRINGER INGELHEIM VETMEDICA GMBH, priority 2001, dated 2018).

Conditions: aqueous solution

solubility in water: does not dissolve readily in water
Compound: Cc1cnc(NC(=O)C2=C(O)c3ccccc3S(=O)(=O)N2C)s1 [meloxicam, 4-hydroxy-2-methyl-N-(5-methyl-2-thiazolyl)-2H-1,2-benzothiazine-3-carboxamide-1,1-dioxide]
